US9193731B2, “Antimicrobial compounds and methods of making and using the same” (Melinta Therapeutics, Inc., priority 2009, dated 2015)

Test system: Escherichia coli strain ATCC25922
Assay: standard microdilution assay to determine minimum inhibitory concentrations (MICs)
Assay type: cell-based
Details: for MIC: Escherichia coli, ATCC25922, Escherichia coli strain ATCC25922, microdilution, read-out: E. coli ATCC25922 MIC; for E. coli ATCC25922 MIC: Escherichia coli strain ATCC25922, microdilution
How it was run: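 Broth microdilution MIC against E. coli ATCC25922, following CLSI protocols, typically in a 100 microliter final volume. Results reported as +/− relative to a 16 micrograms/ml cutoff.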

SMILES | MIC [µg/mL] | E. coli ATCC25922 MIC
NCc1ccc(-n2cc3cc(-c4ccc(S(=O)(=O)N(Cc5ccc(Cl)c(Cl)c5)C5CCNCC5)cc4)[nH]c3nc2=O)cc1 [Compound 945] | > 16 | 
N=C(N)NCCCNCc1ccc(-n2cc3cc(-c4ccc(S(=O)(=O)N(CC5COCCO5)C5CCCNC5)cc4)[nH]c3nc2=O)cc1 (stereo not drawn) [Compound 851] |  | + (a “+” indicates that the compound has an MIC value of 16 micrograms/ml or less)
CSc1cc(CCCCN)cc(-c2cc3cn(-c4ccc(CNCCCNC(=N)N)cc4)c(=O)nc3[nH]2)c1 [Compound 2066a] |  | + (a “+” indicates that the compound has an MIC value of 16 micrograms/ml or less)
NCc1ccc(-n2cc3cc(-c4ccccc4OCCCN4CCNCC4)[nH]c3nc2=O)cc1 [Compound 1117] | > 16 | 
N=C(N)NCCCNC(=O)c1ccc(-n2cc3cc(-c4cccc(S(=O)(=O)N(CCCn5ccc(C(F)(F)F)n5)C5CCNCC5)c4)[nH]c3nc2=O)cc1 [Compound 1124] |  | − (a “−” indicates that the compound has an MIC value greater than 16 micrograms/ml)
NCCCNCc1ccc(-n2cc3cc(-c4ccc(OC(F)(F)F)cc4)[nH]c3nc2=O)cc1 [Compound 296] | > 16 | 
N=C(N)NCCCNCc1ccc(-n2cc3cc(-c4ccc(NC(=O)CNC5CCNCC5)cc4)[nH]c3nc2=O)cc1 [Compound 1290] |  | + (a “+” indicates that the compound has an MIC value of 16 micrograms/ml or less)
CC(CN)CN1CCC(c2cc3cn(-c4ccc(CNCCCNC(=N)N)cc4)c(=O)nc3[nH]2)C1 (stereo not drawn) [Compound 2040a] |  | + (a “+” indicates that the compound has an MIC value of 16 micrograms/ml or less)
N=C(N)NCCCNCc1ccc(-n2cc3cc(-c4cccc(C(NC5CN(C(=N)N)C5)C(F)(F)F)c4)[nH]c3nc2=O)cc1 (stereo not drawn) [Compound 2024a] |  | + (a “+” indicates that the compound has an MIC value of 16 micrograms/ml or less)
N=C(N)NCCCNCc1ccc(-n2cc3cc(-c4cc(CO)cc(OCC(F)CN)c4)[nH]c3nc2=O)cc1 (stereo not drawn) [Compound 2050a] |  | + (a “+” indicates that the compound has an MIC value of 16 micrograms/ml or less)
NCCCc1cccc(-c2cc3cn(-c4ccc(C(N)C(F)(F)F)cc4)c(=O)nc3[nH]2)c1 (stereo not drawn) [Compound 2080a] | > 16 | 
N=C(N)NCCCNC(=O)c1ccc(-n2cc3cc(-c4ccc(S(=O)(=O)CCCNC5CCCNC5)cc4)[nH]c3nc2=O)cc1 (stereo not drawn) [Compound 1276] |  | + (a “+” indicates that the compound has an MIC value of 16 micrograms/ml or less)
CNCc1ccc(-n2cc3cc(-c4ccc(S(=O)(=O)N(CCCc5ccc(F)cc5)C5CCNCC5)cc4)[nH]c3nc2=O)cc1 [Compound 1062] |  | − (a “−” indicates that the compound has an MIC value greater than 16 micrograms/ml)
NCCCc1cccc(-c2cc3cn(-c4ccc(CN)cc4)c(=O)nc3[nH]2)c1 [Compound 2057a] | > 16 | 
N=C(N)NCCCNCc1ccc(-n2cc3cc(-c4cccc(S(=O)(=O)N(CCCC5CCCC5)C5CCNCC5)c4)[nH]c3nc2=O)cc1 [Compound 1047] |  | + (a “+” indicates that the compound has an MIC value of 16 micrograms/ml or less)
N=C(N)NCCCNCc1ccc(-n2cc3cc(-c4ccc(S(=O)(=O)N(Cc5ccccc5SC(F)(F)F)C5CCNCC5)cc4)[nH]c3nc2=O)cc1 [Compound 756] |  | + (a “+” indicates that the compound has an MIC value of 16 micrograms/ml or less)
N=C(N)N[C@@H]1CCN(Cc2ccc(-n3cc4cc(-c5ccc(S(=O)(=O)N(CCCN6CCS(=O)(=O)CC6)C6CCNCC6)cc5)[nH]c4nc3=O)cc2)C1 [Compound 1222] |  | − (a “−” indicates that the compound has an MIC value greater than 16 micrograms/ml)
Cc1cc(C)n2nc(CCCN(C3CCNCC3)S(=O)(=O)c3ccc(-c4cc5cn(-c6ccc(CNCCCNC(=N)N)cc6)c(=O)nc5[nH]4)cc3)nc2n1 [Compound 986] |  | − (a “−” indicates that the compound has an MIC value greater than 16 micrograms/ml)
N=C(N)NCCCNCc1ccc(-n2cc3cc(-c4ccc(S(=O)(=O)N(CCCc5ccncc5)C5CCNCC5)cc4)[nH]c3nc2=O)cc1 [Compound 838] |  | + (a “+” indicates that the compound has an MIC value of 16 micrograms/ml or less)
N=C(N)NCCCNC(=O)c1ccc(-n2cc3cc(-c4ccc(S(=O)(=O)CCCNC5CCNCC5)cc4)[nH]c3nc2=O)cc1 [Compound 1261] |  | + (a “+” indicates that the compound has an MIC value of 16 micrograms/ml or less)
CN(C)Cc1ccc(-n2cc3cc(-c4ccc(S(=O)(=O)N(Cc5ccc(Cl)c(Cl)c5)C5CCNCC5)cc4)[nH]c3nc2=O)cc1 [Compound 983] |  | − (a “−” indicates that the compound has an MIC value greater than 16 micrograms/ml)
N=C(N)NCCCNCc1ccc(-c2cn3cc(-c4ccc(C(=O)N5CCN(CCN6CCOCC6)CC5)cc4)[nH]c3nc2=O)cc1 [Compound 684] | > 16 | 
N=C(N)NCCCNCc1ccc(-c2cn3cc(-c4ccc(Br)cc4)[nH]c3nc2=O)cc1 [Compound 618] | > 16 | 

SMILES | MIC [µg/mL] | E. coli ATCC25922 MIC
CN(CCCO)C(=O)c1cc(-c2cc3cn(-c4ccc(CNCCCNC(=N)N)cc4)c(=O)nc3[nH]2)cc(N2CCNCC2)c1 [Compound 940] |  | + (a “+” indicates that the compound has an MIC value of 16 micrograms/ml or less)
O=C(NC1CCNCC1)c1ccc(-c2cc3cn(-c4ccc(CNCc5c[nH]nn5)cc4)c(=O)nc3[nH]2)cc1 [Compound 240] | > 16 | 
N=C(N)NCCNCC(O)Cn1cc2cc(-c3ccc(S(=O)(=O)NC4CCNCC4)cc3)[nH]c2nc1=O (stereo not drawn) [Compound 1108] |  | + (a “+” indicates that the compound has an MIC value of 16 micrograms/ml or less)
NCCCN(CCCN)Cc1ccc(-n2cc3cc(-c4ccc(S(=O)(=O)N(Cc5ccc(Cl)c(Cl)c5)C5CCNCC5)cc4)[nH]c3nc2=O)cc1 [Compound 235] | < 16 | 
N=C(N)N[C@@H]1CCCN(Cc2ccc(-n3cc4cc(-c5ccc(S(=O)(=O)N(Cc6ccncc6)C6CCNCC6)cc5)[nH]c4nc3=O)cc2)C1 [Compound 1177] |  | − (a “−” indicates that the compound has an MIC value greater than 16 micrograms/ml)
N=C(N)NCCCN(CCCN)Cc1ccc(-n2cc3cc[nH]c3nc2=O)cc1 [Compound 194] | < 16 | 
N=C(N)NCCC(=O)NCc1ccc(-n2cc3cc(-c4ccc(S(=O)(=O)NC5CCNCC5)cc4)[nH]c3nc2=O)cc1 [Compound 1075] |  | + (a “+” indicates that the compound has an MIC value of 16 micrograms/ml or less)
N=C(N)NCCCNCc1ccc(-n2cc3cc(C4CCN(CC(F)CN)C4)[nH]c3nc2=O)cc1 (stereo not drawn) [Compound 2000a] |  | + (a “+” indicates that the compound has an MIC value of 16 micrograms/ml or less)
N=C(N)NCCCNCc1ccc(-n2cc3cc(-c4ccc(C(NC5CN(C(=N)N)C5)C(F)(F)F)cc4)[nH]c3nc2=O)cc1 (stereo not drawn) [Compound 1432] |  | + (a “+” indicates that the compound has an MIC value of 16 micrograms/ml or less)
N=C(N)NCCCNCc1ccc(-n2cc3cc(CCS(=O)(=O)N(CCCc4ccccc4F)C4CCNCC4)[nH]c3nc2=O)cc1 [Compound 992] |  | + (a “+” indicates that the compound has an MIC value of 16 micrograms/ml or less)
N=C(N)NCCCNCc1ccc(-n2cc3cc(-c4ccc(C(NC5CCNCC5)C(F)(F)F)cc4)[nH]c3nc2=O)cc1 (stereo not drawn) [Compound 944] |  | + (a “+” indicates that the compound has an MIC value of 16 micrograms/ml or less)
N=C(N)NCCCNCc1ccc(-c2cn3cc(-c4ccc(S(=O)(=O)N5CCOCC5)cc4)[nH]c3nc2=O)cc1 [Compound 762] | > 16 | 
N=C(N)NCCCNCc1ccc(-n2cc3cc(-c4ccccc4OCCCN4CCNCC4)[nH]c3nc2=O)cc1 [Compound 1166] | > 16 | 
N=C(N)NCCCNCc1ccc(-n2cc3cc(-c4ccc(S(=O)(=O)NC5CCCNC5)cc4)[nH]c3nc2=O)cc1 (stereo not drawn) [Compound 805] |  | + (a “+” indicates that the compound has an MIC value of 16 micrograms/ml or less)
CNCc1ccc(-n2cc3cc(-c4ccc(S(=O)(=O)N(CCCN5CCCCC5)C5CCNCC5)cc4)[nH]c3nc2=O)cc1 [Compound 959] |  | − (a “−” indicates that the compound has an MIC value greater than 16 micrograms/ml)
NCc1ccc(-n2cc3cc(-c4ccc(S(=O)(=O)N(CCCN5CCCCC5)C5CCNCC5)cc4)[nH]c3nc2=O)cc1 [Compound 948] | > 16 | 
Cn1cncc1-c1cc2cn(-c3ccc(CN(CCCN)CCCN)cc3)c(=O)nc2[nH]1 [Compound 184] | < 16 | 
N=C(N)NCCCNCc1ccc(-c2cn3cc(C(=O)Nc4cccc(OC(F)(F)F)c4)[nH]c3nc2=O)cc1 [Compound 974] |  | − (a “−” indicates that the compound has an MIC value greater than 16 micrograms/ml)
CS(=O)(=O)c1ccc(-c2cc(OCC(F)CN)cc(-c3cc4cn(-c5ccc(CNCCCNC(=N)N)cc5)c(=O)nc4[nH]3)c2)cc1 (stereo not drawn) [Compound 2002a] |  | − (a “−” indicates that the compound has an MIC value greater than 16 micrograms/ml)
CC(=O)NCCCN1CCCC(c2cc3cn(-c4ccc(CNCCCNC(=N)N)cc4)c(=O)nc3[nH]2)C1 (stereo not drawn) [Compound 2021a] | > 16 | 
NCCCN1CC=C(c2cn3c(nc2=O)[nH]c2ccccc23)CC1 [Compound 587] | > 16 | 
N=C(N)NCCCNC(=O)c1ccc(-n2cc3cc(-c4cc(CCCCN)cc(C(F)(F)F)c4)[nH]c3nc2=O)cc1 [Compound 2034a] | < 16 | 
